Experiment [1] relates to GFP expressing blood cells. Description: In vivo selective enrichment of blood cells expressing HU resistance gene after bone marrow transplantation. Set-up: species or system C57/B16 mice. As to the method: FIG. 3: In vivo selective enrichment of blood cells expressing HU and TMTX resistance gene. Bone marrow transplantation experiments were performed in C57/b16 mice. Total bone marrow was obtained from large bones of C57/B16 mice and maintained for 24 h in IMDM medium supplemented with 100 ng/ml of SCF. Bone marrow cells were then transduced with 10^9 lentivector particles for 8 hours before being injected into the tail vein of irradiated C57/B16 mice. Six to eight weeks later, blood samples were taken and GFP expression was measured by FACS. After which mice were injected intraperitoneally with either HU or TMTX with initial doses of HU of 200, 500 and 1000 mg/kg per day and initial doses of TMTX of 10, 25, 50 mg/kg with 2 injections per week. GFP expressing blood cells were measured once a week. (A) Irradiated mice, transplanted with bone marrow cells and transduced with a lentivector expressing GFP and the hydroxyurea resistance (GFP-HU).
In order to more directly assess the ability of HU and TMTX to select cells in vivo studies were undertaken in mice injected with transduced cells. […] Six to eight weeks later, blood samples were taken and GPF expression was measured by FACS. […] GFP expressing blood cells were measured once a week.

For experiment [2], the system named is Hela cells expressing HU and TMTX resistance gene. Description: Hydroxyurea and Trimetrexate cytotoxic assay: selective enrichment of transduced (GFP positive) Hela cells by FACS. It is filed as cell-based. Conditions: three days, FIG. 2. Here is the method:
Control and transduced Hela cells were incubated with HU and TMTX for 3 days, after which survival rate of both cell population were measured by FACS analysis. Hela cells were transduced with lentivector expressing GFP and the Hydroxyurea or Trimetrexate resistance genes. Three to five days after transduction, cell transduction efficiency was determined by measuring GFP fluorescence. Transduced Hela cells were treated with the appropriate concentration of cytotoxic compounds and survival rate were measured by FACS analysis. Next, the ability of either HU or TMTX to selectively enrich transduced Hela cells was evaluated by FACS. Hela cells were transduced as outlined above and then cultured in control media or media including 25 μM HU, 100 μM HU, 1 nM TMTX or 10 nM TMTX. After culture in the indicated conditions for three days, the proportion of transduced cells (GFP positive) versus non-transduced cells was determined by FACS and the results plotted.

Consider two compounds from patent US20160010094A1, “TRANSGENIC CELL SELECTION” (UNIVERSITE DE GENEVE, priority 2013, published 2016).

In the case of `NC(=O)NO` [HU, Hydroxyurea], the “transient increase in GFP-positive leukocytes” value in experiment [1] (irradiated mice transplanted with bone marrow cells transduced with GFP-HU lentivector, hydroxyurea-treated, FIG. 3A) is listed as “up to 8%”. Moreover, the “circulating GFP positive cells” value in experiment [1] (some treated animals, one week after HU injection, intraperitoneal, transient increase, FIG. 3) was 5%-10%. In experiment [2] (25 μM HU and 100 μM HU), the “selection of transduced cells (GFP positive versus non-transduced, FACS)” value is reported as “modest selection”.

As to `COc1cc(NCc2ccc3nc(N)nc(N)c3c2C)cc(OC)c1OC` [TMTX, Trimetrexate], the “selection of transduced cells (GFP positive versus non-transduced, FACS)” value in experiment [2] (10 nM TMTX (tested at 1 nM and 10 nM)) is “significant selection”.
